Results taken from ChEMBL document CHEMBL5550190 (J Med Chem, 2024).

Tests used:
[1] = Metabolic stability in human liver microsomes assessed as half life at 100 uM measured upto 60 mins by LC-MS/MS analysis; assay type: ADME, Microsome; settings: 1 h
[2] = Drug metabolism in mouse liver microsomes assessed as M3 metabolite formation at 10 uM after 30 mins in presence of NADPH by LC-MS/MS analysis; assay type: ADME, Microsome; settings: 0.5 h
[3] = Metabolic stability in human liver microsomes assessed as half life at 100 uM preincubated for 5 mins followed by NADPH addition and measured upto 60 mins by LC-MS/MS analysis; assay type: ADME, Microsome; settings: time < 65 min
CYP1A2 = biological target: T1, CYP1A2 (Homo sapiens, UniProt P05177); test: Drug metabolism in human liver microsomes assessed as CYP1A2-mediated metabolism by measuring increase in half life in presence of furafylline (reference value: 10.8 mins); assay type: ADME, Microsome; settings: with furafylline
T1 sequence (P05177 whole entry): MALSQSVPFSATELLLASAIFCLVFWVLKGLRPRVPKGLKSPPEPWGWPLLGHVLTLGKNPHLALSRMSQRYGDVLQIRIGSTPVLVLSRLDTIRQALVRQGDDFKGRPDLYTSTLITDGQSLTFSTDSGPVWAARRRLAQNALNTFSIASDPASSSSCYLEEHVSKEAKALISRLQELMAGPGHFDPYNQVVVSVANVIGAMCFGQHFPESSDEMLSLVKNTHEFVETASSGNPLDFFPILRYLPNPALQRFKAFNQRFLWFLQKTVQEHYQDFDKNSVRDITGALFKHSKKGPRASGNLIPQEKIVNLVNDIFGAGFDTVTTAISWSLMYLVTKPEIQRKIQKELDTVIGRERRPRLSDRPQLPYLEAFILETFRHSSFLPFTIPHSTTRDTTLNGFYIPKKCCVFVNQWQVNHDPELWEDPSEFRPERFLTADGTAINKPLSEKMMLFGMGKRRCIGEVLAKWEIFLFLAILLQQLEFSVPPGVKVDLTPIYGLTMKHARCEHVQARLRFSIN

[4] = Metabolic stability in mouse liver microsomes assessed as half life at 100 uM measured upto 60 mins by LC-MS/MS analysis; assay type: ADME, Microsome; settings: 1 h
CYP3A4 = CYP3A4 (Homo sapiens, UniProt P08684); test: Drug metabolism in human liver microsomes assessed as CYP3A4-mediated metabolism by measuring increase in half life in presence of ketoconazole (reference value: 10.8 mins); assay type: ADME, Microsome; settings: with ketoconazole
Hs-578T = test: Antitumor activity against human Hs-578T cells incubated for 48 hrs; assay type: functional
[5] = Drug metabolism in mouse liver microsomes assessed as M1 metabolite formation at 10 uM after 30 mins in presence of NADPH by LC-MS/MS analysis; assay type: ADME, Microsome; settings: 0.5 h
MDA-MB-231 [6] = test: Antitumor activity against human MDA-MB-231 cells incubated for 48 hrs by Celltiter Blue reagent based 2D microtiter assay; assay type: functional
MDA-MB-231 [7] = test: Antitumor activity against human MDA-MB-231 cells incubated for 48 hrs by Celltiter Blue reagent based 3D microtiter assay; assay type: functional
[8] = Drug metabolism in mouse liver microsomes assessed as M2 metabolite formation at 10 uM after 30 mins in presence of NADPH by LC-MS/MS analysis; assay type: ADME, Microsome; settings: 0.5 h
HCT-116 = test: Antitumor activity against human HCT-116 cells incubated for 48 hrs; assay type: functional
CYP2C19 = CYP2C19 (Homo sapiens, UniProt P33261); test: Drug metabolism in human liver microsomes assessed as CYP2C19-mediated metabolism by measuring increase in half life in presence of (+)-N-3-benzylnirvanol (reference value: 10.8 mins); assay type: ADME, Microsome; settings: with (+)-N-3-benzylnirvanol
[9] = Protein binding in human plasma at 5 uM incubated for 5 hrs by LC-MS/MS analysis; assay type: ADME, cell-free; settings: read-out: PPB
CYP2D6 = CYP2D6 (Homo sapiens, UniProt P10635); test: Drug metabolism in human liver microsomes assessed as CYP2D6-mediated metabolism by measuring increase in half life in presence of quinidine (reference value: 10.8 mins); assay type: ADME, Microsome; settings: with quinidine
[10] = Protein binding in mouse plasma at 5 uM incubated for 5 hrs by LC-MS/MS analysis; assay type: ADME, cell-free; settings: read-out: PPB
[11] = Metabolic stability in mouse liver microsomes assessed as half life at 100 uM preincubated for 5 mins followed by NADPH addition and measured upto 60 mins by LC-MS/MS analysis; assay type: ADME, Microsome; settings: time < 65 min
MDA-MB-231 [12] = test: Antitumor activity against human MDA-MB-231 cells incubated for 48 hrs in presence of 1.5% BSA by Celltiter Blue reagent based 2D microtiter assay; assay type: functional
A549 = test: Antitumor activity against human A549 cells incubated for 48 hrs; assay type: functional
CYP2C9 = CYP2C9 (Homo sapiens, UniProt P11712); test: Drug metabolism in human liver microsomes assessed as CYP2C9-mediated metabolism by measuring increase in half life in presence of sulfaphenazole (reference value: 10.8 mins); assay type: ADME, Microsome; settings: with sulfaphenazole
MDA-MB-231 [13] = test: Antitumor activity against human MDA-MB-231 cells incubated for 48 hrs in presence of 1.5% BSA by Celltiter Blue reagent based 3D microtiter assay; assay type: functional

Chain of CYP2C9 (P11712 whole entry): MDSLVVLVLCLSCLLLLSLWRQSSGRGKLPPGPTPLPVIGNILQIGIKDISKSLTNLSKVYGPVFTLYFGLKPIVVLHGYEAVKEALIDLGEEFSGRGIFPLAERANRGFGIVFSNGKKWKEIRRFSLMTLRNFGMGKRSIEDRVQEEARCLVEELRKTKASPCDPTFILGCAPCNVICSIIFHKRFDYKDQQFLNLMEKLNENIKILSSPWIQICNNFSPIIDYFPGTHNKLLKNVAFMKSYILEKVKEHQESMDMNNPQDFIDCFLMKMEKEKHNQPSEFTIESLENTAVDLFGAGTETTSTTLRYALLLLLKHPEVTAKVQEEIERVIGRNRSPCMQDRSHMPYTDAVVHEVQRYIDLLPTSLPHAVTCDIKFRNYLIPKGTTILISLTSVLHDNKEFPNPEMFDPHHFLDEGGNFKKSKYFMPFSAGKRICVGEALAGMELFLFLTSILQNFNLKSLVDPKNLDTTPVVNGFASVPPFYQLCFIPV
Chain of CYP2D6 (P10635 whole entry): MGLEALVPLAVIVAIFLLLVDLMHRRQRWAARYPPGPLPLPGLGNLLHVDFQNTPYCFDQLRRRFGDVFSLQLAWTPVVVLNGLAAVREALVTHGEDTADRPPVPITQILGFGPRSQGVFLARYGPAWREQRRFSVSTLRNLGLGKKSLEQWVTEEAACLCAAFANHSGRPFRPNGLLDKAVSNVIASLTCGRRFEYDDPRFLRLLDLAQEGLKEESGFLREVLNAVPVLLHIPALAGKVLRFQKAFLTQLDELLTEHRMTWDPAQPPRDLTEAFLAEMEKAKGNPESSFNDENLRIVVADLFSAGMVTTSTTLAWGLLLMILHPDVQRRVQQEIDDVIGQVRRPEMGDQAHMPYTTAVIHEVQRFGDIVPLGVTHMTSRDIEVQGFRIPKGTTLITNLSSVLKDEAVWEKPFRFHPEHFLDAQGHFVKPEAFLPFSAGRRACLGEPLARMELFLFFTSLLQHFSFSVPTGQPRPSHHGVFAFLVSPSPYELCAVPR
Chain of CYP2C19 (P33261 whole entry): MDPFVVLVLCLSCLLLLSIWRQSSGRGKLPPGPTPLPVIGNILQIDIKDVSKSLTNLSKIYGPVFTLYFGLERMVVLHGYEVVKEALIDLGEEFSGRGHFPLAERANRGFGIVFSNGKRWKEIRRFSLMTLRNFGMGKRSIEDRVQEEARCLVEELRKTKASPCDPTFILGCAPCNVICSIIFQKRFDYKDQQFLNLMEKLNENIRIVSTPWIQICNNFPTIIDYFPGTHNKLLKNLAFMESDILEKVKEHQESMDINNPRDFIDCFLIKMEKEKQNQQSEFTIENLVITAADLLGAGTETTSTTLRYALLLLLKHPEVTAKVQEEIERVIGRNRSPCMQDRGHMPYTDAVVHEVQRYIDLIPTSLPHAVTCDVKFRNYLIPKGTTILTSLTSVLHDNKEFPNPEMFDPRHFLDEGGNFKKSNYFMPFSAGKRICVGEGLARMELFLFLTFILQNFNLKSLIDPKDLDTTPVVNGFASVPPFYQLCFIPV
Chain of CYP3A4 (P08684 whole entry): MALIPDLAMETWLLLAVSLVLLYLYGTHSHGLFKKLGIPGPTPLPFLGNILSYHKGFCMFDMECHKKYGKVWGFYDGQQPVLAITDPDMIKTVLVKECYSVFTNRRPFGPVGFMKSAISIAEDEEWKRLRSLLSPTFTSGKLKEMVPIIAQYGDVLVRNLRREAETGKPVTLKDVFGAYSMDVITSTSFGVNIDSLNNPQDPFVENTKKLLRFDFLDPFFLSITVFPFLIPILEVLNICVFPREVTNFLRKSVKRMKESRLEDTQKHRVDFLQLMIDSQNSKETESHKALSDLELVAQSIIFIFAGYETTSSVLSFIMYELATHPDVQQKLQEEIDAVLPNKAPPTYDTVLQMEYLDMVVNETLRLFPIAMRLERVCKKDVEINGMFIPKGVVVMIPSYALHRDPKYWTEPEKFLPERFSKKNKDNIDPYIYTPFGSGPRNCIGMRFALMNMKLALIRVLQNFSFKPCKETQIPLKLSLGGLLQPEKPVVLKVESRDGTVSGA

GI50 (HCT-116) | GI50 (A549) | SMILES | GI50 (Hs-578T) | also measured
< 5 nM | < 5 nM | CCN(CC)C(=O)C[C@H]1C(=O)Nc2cc(NC(=O)c3cc(OC)c(OC)c(OC)c3Br)c(Oc3cc(C)cc(C)c3)cc2C(=O)N1C | 5.4 nM | Stability [1]: Stable; Drug metabolism [2]: Metabolite_Detected; half-life at 100 µM [3]: 11 min; half-life (CYP1A2): 11.4 min; Stability [4]: Stable; half-life (CYP3A4): 866 min; Drug metabolism [5]: Metabolite_Detected; GI50 (MDA-MB-231 [6]): < 1 nM; GI50 (MDA-MB-231 [7]): 109 nM; Drug metabolism [8]: Metabolite_Detected; half-life (CYP2C19): 11.7 min; fraction unbound at 5 h, 5 µM [9]: < 0.02; half-life (CYP2D6): 11.6 min; fraction unbound at 5 h, 5 µM [10]: < 0.02; half-life at 100 µM [11]: 13.8 min; GI50 (MDA-MB-231 [12]): 3.39 nM; half-life (CYP2C9): 16.6 min; GI50 (MDA-MB-231 [13]): 53.2 nM
< 5 nM | < 5 nM | [2H]C([2H])([2H])Oc1cc(C(=O)Nc2cc3c(cc2Oc2cc(C)cc(C)c2)C(=O)N(C)[C@@H](CC(=O)N(C)C)C(=O)N3)c(Br)c(OC([2H])([2H])[2H])c1OC([2H])([2H])[2H] | < 5 nM | –
< 5 nM | 6.1 nM | [2H]C([2H])([2H])Oc1cc(C(=O)Nc2cc3c(cc2Oc2cc(C)cc(C)c2)C(=O)N[C@@H](CC(=O)N(C([2H])([2H])[2H])C([2H])([2H])[2H])C(=O)N3)c(Br)c(OC([2H])([2H])[2H])c1OC([2H])([2H])[2H] | < 5 nM | –
15.6 nM | < 5 nM | [2H]C([2H])([2H])Oc1cc(C(=O)Nc2cc3c(cc2Oc2cc(C)cc(C)c2)C(=O)N[C@@H](CC(=O)N(C)O)C(=O)N3)c(Br)c(OC([2H])([2H])[2H])c1OC([2H])([2H])[2H] | 8.6 nM | –
5.4 nM | 14.9 nM | [2H]C([2H])([2H])Oc1cc(C(=O)Nc2cc3c(cc2Oc2cc(C)cc(C)c2)C(=O)N[C@@H](CC(=O)N(CC)CC)C(=O)N3)c(Cl)c(OC([2H])([2H])[2H])c1OC([2H])([2H])[2H] | 39.7 nM | –
< 5 nM | < 5 nM | [2H]C([2H])([2H])C([2H])([2H])N(C(=O)C[C@@H]1NC(=O)c2cc(Oc3cc(C)cc(C)c3)c(NC(=O)c3cc(OC)c(OC)c(OC)c3Br)cc2NC1=O)C([2H])([2H])C([2H])([2H])[2H] | 16.1 nM | –
< 5 nM | < 5 nM | COc1cc(C(=O)Nc2cc3c(cc2Oc2cc(C)cc(C)c2)C(=O)N[C@@H](CC(=O)N(C)C)C(=O)N3)c(Br)c(OC)c1OC | < 5 nM | –
7.8 nM | 4.9 nM | [2H]C([2H])([2H])Oc1cc(C(=O)Nc2cc3c(cc2Oc2cc(C)cc(C)c2)C(=O)N[C@@H](CC(=O)N(C)OC)C(=O)N3)c(Br)c(OC([2H])([2H])[2H])c1OC([2H])([2H])[2H] | < 5 nM | GI50 (MDA-MB-231 [6]): < 1 nM; GI50 (MDA-MB-231 [7]): 251 nM; GI50 (MDA-MB-231 [12]): < 1 nM; GI50 (MDA-MB-231 [13]): 90.3 nM
7.1 nM | < 5 nM | [2H]C([2H])([2H])N(C(=O)C[C@@H]1NC(=O)c2cc(Oc3cc(C)cc(C)c3)c(NC(=O)c3cc(OC)c(OC)c(OC)c3Br)cc2NC1=O)C([2H])([2H])[2H] | < 5 nM | GI50 (MDA-MB-231 [6]): 9.33 nM; GI50 (MDA-MB-231 [7]): 9.96 nM; GI50 (MDA-MB-231 [12]): 9.43 nM; GI50 (MDA-MB-231 [13]): 22.5 nM
< 5 nM | < 5 nM | [2H]C([2H])([2H])N1C(=O)c2cc(Oc3cc(C)cc(C)c3)c(NC(=O)c3cc(OC)c(OC)c(OC)c3Br)cc2NC(=O)[C@@H]1CC(=O)N(CC)CC | 20.9 nM | –
< 5 nM | 19.1 nM | [2H]c1c(Oc2cc3c(cc2NC(=O)c2cc(OC)c(OC)c(OC)c2Cl)NC(=O)[C@H](CC(=O)N(CC)CC)NC3=O)c([2H])c(C([2H])([2H])[2H])c([2H])c1C([2H])([2H])[2H] | 27.7 nM | –
< 5 nM | < 5 nM | [2H]C([2H])([2H])Oc1cc(C(=O)Nc2cc3c(cc2Oc2cc(C)cc(C)c2)C(=O)N[C@@H](CC(=O)N(C)C)C(=O)N3)c(Br)c(OC([2H])([2H])[2H])c1OC([2H])([2H])[2H] | < 5 nM | GI50 (MDA-MB-231 [6]): 0.23 nM; GI50 (MDA-MB-231 [7]): 25.3 nM; GI50 (MDA-MB-231 [12]): 0.79 nM; GI50 (MDA-MB-231 [13]): 0.75 nM
< 5 nM | 13.1 nM | [2H]C([2H])([2H])Oc1c(OC)cc(C(=O)Nc2cc3c(cc2Oc2cc(C)cc(C)c2)C(=O)N[C@@H](CC(=O)N(CC)CC)C(=O)N3)c(Cl)c1OC | 31.9 nM | –
124 nM | 207 nM | [2H]c1c(C)c([2H])c(Oc2cc3c(cc2NC(=O)c2cc(OC)c(OC)c(OC)c2Cl)NC(=O)[C@H](CC(=O)N(CC)CC)NC3=O)c([2H])c1C | 292 nM | –
< 5 nM | < 5 nM | [2H]C([2H])([2H])N(C(=O)C[C@H]1C(=O)Nc2cc(NC(=O)c3cc(OC)c(OC)c(OC)c3Br)c(Oc3cc(C)cc(C)c3)cc2C(=O)N1C)C([2H])([2H])[2H] | < 5 nM | –
< 5 nM | 11.6 nM | [2H]C([2H])([2H])c1cc(Oc2cc3c(cc2NC(=O)c2cc(OC)c(OC)c(OC)c2Cl)NC(=O)[C@H](CC(=O)N(CC)CC)NC3=O)cc(C([2H])([2H])[2H])c1 | 30.1 nM | –
< 5 nM | < 5 nM | [2H]C([2H])([2H])Oc1cc(C(=O)Nc2cc3c(cc2Oc2cc(C)cc(C)c2)C(=O)N[C@@H](CC(=O)N(CC)CC)C(=O)N3)c(Br)c(OC([2H])([2H])[2H])c1OC([2H])([2H])[2H] | 8.1 nM | –
< 5 nM | 11.7 nM | [2H]C([2H])([2H])Oc1cc(C(=O)Nc2cc3c(cc2Oc2cc(C)cc(C)c2)C(=O)N[C@@H](CC(=O)N(C([2H])([2H])C([2H])([2H])[2H])C([2H])([2H])C([2H])([2H])[2H])C(=O)N3)c(Cl)c(OC([2H])([2H])[2H])c1OC([2H])([2H])[2H] | 51.5 nM | –
< 5 nM | < 5 nM | [2H]C([2H])([2H])Oc1cc(C(=O)Nc2cc3c(cc2Oc2cc(C)cc(C)c2)C(=O)N(C)[C@@H](CC(=O)N(C([2H])([2H])C([2H])([2H])[2H])C([2H])([2H])C([2H])([2H])[2H])C(=O)N3)c(Br)c(OC([2H])([2H])[2H])c1OC([2H])([2H])[2H] | < 5 nM | –
< 5 nM | < 5 nM | [2H]C([2H])([2H])Oc1cc(C(=O)Nc2cc3c(cc2Oc2cc(C)cc(C)c2)C(=O)N[C@@H](CC(=O)N(C([2H])([2H])C([2H])([2H])[2H])C([2H])([2H])C([2H])([2H])[2H])C(=O)N3)c(Br)c(OC([2H])([2H])[2H])c1OC([2H])([2H])[2H] | < 5 nM | GI50 (MDA-MB-231 [6]): < 1 nM; GI50 (MDA-MB-231 [7]): 64.1 nM; GI50 (MDA-MB-231 [12]): < 1 nM; GI50 (MDA-MB-231 [13]): 14 nM
15.6 nM | < 5 nM | [2H]C([2H])([2H])C([2H])([2H])N(C(=O)C[C@H]1C(=O)Nc2cc(NC(=O)c3cc(OC)c(OC)c(OC)c3Br)c(Oc3cc(C)cc(C)c3)cc2C(=O)N1C)C([2H])([2H])C([2H])([2H])[2H] | < 5 nM | –
< 5 nM | < 5 nM | COc1cc(C(=O)Nc2cc3c(cc2Oc2cc(C)cc(C)c2)C(=O)N(C)[C@@H](CC(=O)N(C)C)C(=O)N3)c(Br)c(OC)c1OC | < 5 nM | –
< 5 nM | < 5 nM | [2H]C([2H])([2H])Oc1cc(C(=O)Nc2cc3c(cc2Oc2cc(C)cc(C)c2)C(=O)N(C)[C@@H](CC(=O)N(C([2H])([2H])[2H])C([2H])([2H])[2H])C(=O)N3)c(Br)c(OC([2H])([2H])[2H])c1OC([2H])([2H])[2H] | < 5 nM | –
